From US12624044B2, “SMARCA degraders and uses thereof” (Kymera Therapeutics, Inc., priority 2019, dated 2026)

What was measured:
SMARCA2 = SMARCA2 (Homo sapiens, UniProt P51531); experiment: MSD SMARCA2 degradation in A549 cell line; assay type: cell-based; settings: 24 h; for DC50: A549 cells, read-out: SMARCA2 MSD A549 degradation 24 h: Average external-Abs DC50; for Dmax: A549, A549 cells
Procedure, shortened: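 SMARCA2 remaining was measured by MSD electrochemiluminescence on RIPA lysates (anti-SMARCA2 plus SULFO-TAG anti-rabbit). Prior exposure: 24 h of A549 cells to a 10-point, 3-fold dilution series topping at 1000 nM final; Dmax % given as graded codes.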

SMARCA4 = biological target: T1, SMARCA4 (Homo sapiens, UniProt P51532); experiment: SMARCA4 Western blot MV4-11 degradation; assay type: cell-based; settings: 24 h; for DC50: MV4-11 cells, read-out: SMARCA4 WB MV411 degradation 24 h: Average external-Abs DC50; for Dmax: MV4-11, MV4-11 cells, read-out: SMARCA4 WB MV411 degradation 24 h: Average Dmax %
T1 construct: SMARCA2 and SMARCA4 protein degradation in MV4-11 cells; endogenous in cells; host or cells: MV4-11
T1 sequence (P51532 whole entry): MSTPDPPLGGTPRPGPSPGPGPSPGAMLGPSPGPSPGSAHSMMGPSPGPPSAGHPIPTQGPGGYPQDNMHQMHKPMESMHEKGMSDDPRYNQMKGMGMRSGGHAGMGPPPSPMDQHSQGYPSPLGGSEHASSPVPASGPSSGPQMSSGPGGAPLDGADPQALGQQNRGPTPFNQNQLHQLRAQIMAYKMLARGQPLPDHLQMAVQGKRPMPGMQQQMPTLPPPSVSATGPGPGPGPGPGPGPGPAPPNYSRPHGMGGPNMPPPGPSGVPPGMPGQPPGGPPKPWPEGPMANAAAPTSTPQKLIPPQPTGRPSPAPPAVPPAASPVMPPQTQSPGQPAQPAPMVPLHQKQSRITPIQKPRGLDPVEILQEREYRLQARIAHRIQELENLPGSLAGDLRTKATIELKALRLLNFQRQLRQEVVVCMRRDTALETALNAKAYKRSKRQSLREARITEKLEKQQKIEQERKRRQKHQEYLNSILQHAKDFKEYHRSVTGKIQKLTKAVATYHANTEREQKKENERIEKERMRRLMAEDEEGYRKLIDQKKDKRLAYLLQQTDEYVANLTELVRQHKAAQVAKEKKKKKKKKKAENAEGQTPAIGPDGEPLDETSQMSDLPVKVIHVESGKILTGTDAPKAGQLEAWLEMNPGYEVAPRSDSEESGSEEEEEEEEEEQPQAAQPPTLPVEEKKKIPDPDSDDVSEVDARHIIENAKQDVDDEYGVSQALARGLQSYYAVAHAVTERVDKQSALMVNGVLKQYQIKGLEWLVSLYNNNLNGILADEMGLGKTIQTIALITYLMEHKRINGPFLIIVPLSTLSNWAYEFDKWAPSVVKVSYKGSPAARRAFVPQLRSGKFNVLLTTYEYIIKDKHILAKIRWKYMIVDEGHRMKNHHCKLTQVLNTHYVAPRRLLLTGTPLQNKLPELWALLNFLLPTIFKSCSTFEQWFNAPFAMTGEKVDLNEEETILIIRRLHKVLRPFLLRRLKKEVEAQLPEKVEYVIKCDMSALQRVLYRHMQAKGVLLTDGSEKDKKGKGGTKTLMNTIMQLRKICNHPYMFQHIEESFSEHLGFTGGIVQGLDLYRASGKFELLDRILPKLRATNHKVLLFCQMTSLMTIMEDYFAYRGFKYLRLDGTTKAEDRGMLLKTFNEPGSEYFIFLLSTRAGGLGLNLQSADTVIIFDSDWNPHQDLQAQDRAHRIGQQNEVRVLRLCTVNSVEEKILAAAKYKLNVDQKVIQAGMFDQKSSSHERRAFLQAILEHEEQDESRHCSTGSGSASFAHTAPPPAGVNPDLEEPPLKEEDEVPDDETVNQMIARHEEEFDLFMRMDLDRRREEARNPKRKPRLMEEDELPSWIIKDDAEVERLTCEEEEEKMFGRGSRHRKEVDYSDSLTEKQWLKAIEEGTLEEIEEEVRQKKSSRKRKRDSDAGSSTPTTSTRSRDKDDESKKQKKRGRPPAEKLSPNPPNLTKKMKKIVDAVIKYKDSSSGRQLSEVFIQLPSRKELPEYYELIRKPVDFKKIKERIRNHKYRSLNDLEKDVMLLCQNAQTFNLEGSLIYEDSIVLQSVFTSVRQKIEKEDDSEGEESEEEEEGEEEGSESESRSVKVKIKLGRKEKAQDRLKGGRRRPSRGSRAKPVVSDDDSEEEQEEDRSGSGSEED
Protocol: Cells were seeded into 6-well plates (MV4-11: 4×10^6 cells/well/1 ml) and 1 ml of 2× compound solution was added into the well to make the final concentration and the plates were mixed well and incubated for 24 hours (No cytotoxicity was observed). The cell were collected with media and spun at 3000 rpm for 5 minutes. The supernatant was aspirated and the well and the cells were washed with cold PBS once and combined for centrifugation again; the supernatant aspirated again. 200 ul pre-chilled RIPAlysis buffer (Boston BioProducts BP-115D) with protease/phosphatase inhibitor (Roche 05892791001/Roche 04906837001) was directly added into the tube to lyze the cells for 20 minutes on ice. The cell lysate were collected into EP tubes and spun at 13000 rpm for 20 minutes and 72 ul supernatant was transferred to a fresh EP tube containing 18 ul of 5× loading buffer (Beyotime Bio P0015) to make the loading samples. The samples were heated to 100° C. for 10 minutes and cooled to RT and microcentrifuged. 20 ul of samples were loaded onto SDS-PAGE gel (Novex, WG1402BOX) and the gel was run at 80 V for 20 minutes and 120 V for 1.5 hours. The samples were electrotransfer to a NC membrane using wet-transfer method with 250 mA for 2.5 hours. The membrane was blocked with LICOR blocking buffer (LI-COR, 927-50000) for 1 hour. The membrane was washed three times with TBST (CST #9997S), 5 minutes each. Incubation was performed with primary antibody prepared in blocking buffer with 0.1% Tween-20 (Solarbio, P8220) at 4° C. overnight (Anti-SMARCA2/BRM antibody (ab15597) 1:500; Anti-BRG1 antibody [EPR3912] (ab108318) 1:1000; Rabbit anti-Baf180 antibody [EPR15860] (Abcam, ab196022) 1:1000; mouse anti-beta-Actin (8H10D10) (CST #3700) 1:10000). The membrane was washed three times with TBST, 5 minutes each. Incubation with secondary antibody was performed for 1 hour at RT (anti-rabbit IgG (Licor, 926-32211) 1:5000; anti-mouse IgG (LI-COR, 926-68070) 1:5000). The membrane was washed three times with TBST, 5 minutes each and lastly the LiCOR was read.
The letter codes for the percentage of SMARCA degradation after 24 hours (Dmax %) include: A (>90% degradation), B (>70-90% degradation), C (50-70% degradation), and D (<50% degradation).

Chain of SMARCA2 (P51531 whole entry): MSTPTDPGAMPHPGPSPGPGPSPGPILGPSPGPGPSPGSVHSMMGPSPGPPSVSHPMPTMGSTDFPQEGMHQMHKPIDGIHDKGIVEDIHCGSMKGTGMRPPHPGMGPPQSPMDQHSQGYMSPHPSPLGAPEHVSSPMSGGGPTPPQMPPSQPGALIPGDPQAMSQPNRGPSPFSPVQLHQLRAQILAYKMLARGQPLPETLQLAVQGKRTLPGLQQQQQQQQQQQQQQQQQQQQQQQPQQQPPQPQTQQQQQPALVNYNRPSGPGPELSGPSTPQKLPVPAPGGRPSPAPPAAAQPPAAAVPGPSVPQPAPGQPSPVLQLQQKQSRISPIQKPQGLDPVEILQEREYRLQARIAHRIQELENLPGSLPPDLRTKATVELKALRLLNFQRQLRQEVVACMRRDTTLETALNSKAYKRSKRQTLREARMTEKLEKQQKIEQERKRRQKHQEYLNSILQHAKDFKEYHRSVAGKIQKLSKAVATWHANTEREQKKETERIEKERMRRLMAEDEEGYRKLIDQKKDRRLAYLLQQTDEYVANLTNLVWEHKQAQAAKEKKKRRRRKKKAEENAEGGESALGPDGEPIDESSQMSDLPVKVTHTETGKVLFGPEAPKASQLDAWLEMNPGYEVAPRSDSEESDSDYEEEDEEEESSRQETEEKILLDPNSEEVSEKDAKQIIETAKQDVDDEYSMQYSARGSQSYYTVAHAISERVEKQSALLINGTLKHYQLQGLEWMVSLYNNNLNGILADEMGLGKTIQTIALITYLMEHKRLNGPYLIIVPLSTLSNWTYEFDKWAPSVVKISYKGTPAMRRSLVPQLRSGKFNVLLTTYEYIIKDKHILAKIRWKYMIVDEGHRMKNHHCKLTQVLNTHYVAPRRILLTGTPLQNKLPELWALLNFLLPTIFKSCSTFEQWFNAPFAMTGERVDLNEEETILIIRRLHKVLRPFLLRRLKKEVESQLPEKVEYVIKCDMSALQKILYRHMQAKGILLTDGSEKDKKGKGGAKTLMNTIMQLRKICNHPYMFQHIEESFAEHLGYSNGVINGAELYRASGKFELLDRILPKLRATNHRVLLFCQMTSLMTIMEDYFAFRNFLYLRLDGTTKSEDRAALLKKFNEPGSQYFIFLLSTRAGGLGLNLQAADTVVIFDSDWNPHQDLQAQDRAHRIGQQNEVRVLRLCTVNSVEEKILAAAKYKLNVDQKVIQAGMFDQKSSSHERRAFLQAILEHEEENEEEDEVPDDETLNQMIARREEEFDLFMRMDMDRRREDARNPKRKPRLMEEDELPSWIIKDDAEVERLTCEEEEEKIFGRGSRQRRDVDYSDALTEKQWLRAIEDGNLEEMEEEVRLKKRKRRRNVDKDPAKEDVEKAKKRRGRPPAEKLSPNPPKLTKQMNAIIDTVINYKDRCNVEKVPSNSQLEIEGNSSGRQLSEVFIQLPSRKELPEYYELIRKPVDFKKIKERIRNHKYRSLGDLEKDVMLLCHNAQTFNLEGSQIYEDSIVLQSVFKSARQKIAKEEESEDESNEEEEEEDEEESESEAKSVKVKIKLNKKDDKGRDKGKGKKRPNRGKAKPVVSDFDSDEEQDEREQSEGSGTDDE

Structure (SMILES) | DC50 (SMARCA2) | DC50 (SMARCA4) | Dmax (SMARCA2) | Dmax (SMARCA4)
Cn1c(=O)n(C2CCC(=O)NC2=O)c2ccc(C3CC4(C3)CC(N3CCC(c5cnc(N6C7CCC6CN(c6cc(-c8ccccc8O)nnc6N)C7)nc5)CC3)C4)cc21 (single isomer, unassigned) [I-536 (P3), 3-(5-(6-(4-(2-(3-(3-amino-6-(2-hydroxyphenyl)pyridazin-4-yl)-3,8-diazabicyclo[3.2.1]octan-8-yl)pyrimidin-5-yl)piperidin-1-yl)spiro[3.3]heptan-2-yl)-3-methyl-2-oxo-2,3-dihydro-1H-benzo[d]imidazol-1-yl)piperidine-2,6-dione] | < 100 nM | < 100 nM |  | 
Cc1ncsc1-c1ccc(CNC(=O)[C@@H]2C[C@@H](O)CN2C(=O)[C@@H](NC(=O)c2ccc(-c3ccc(N4CCC(Cn5cc(-c6cc(-c7ccccc7O)nnc6N)cn5)CC4)cc3)cc2)C(C)(C)C)cc1 [I-353] | > 1000 nM | > 1000 nM | < 50% | 70 to 90%
Cc1ncsc1-c1ccc(CNC(=O)[C@@H]2C[C@@H](O)CN2C(=O)[C@@H](NC(=O)CC2CCC(c3cnc(N4C5CCC4CN(c4cc(-c6ccccc6O)nnc4N)C5)nc3)CC2)C(C)(C)C)cc1 (some centres unmarked) [I-502] | < 100 nM | < 100 nM | > 90% | > 90%
COc1ccccc1-c1cc(N2CC3CCC(C2)N3c2ncc([C@H]3CC[C@@H](CC(=O)N[C@H](C(=O)N4C[C@H](O)C[C@H]4C(=O)NCc4ccc(-c5scnc5C)cc4)C(C)(C)C)CC3)cn2)c(N)nn1 [I-331] | 100 to 500 nM | < 100 nM | > 90% | > 90%
Nc1nnc(-c2ccccc2O)cc1N1CC2CCC(C1)N2c1ncc(C2CCN(CCCNC(=O)COc3ccc4c(c3)CCCN4C(=O)CCl)CC2)cn1 [I-523, N-[3-[4-[2-[3-[3-amino-6-(2-hydroxyphenyl)pyridazin-4-yl]-3,8-diazabicyclo[3.2.1]octan-8-yl]pyrimidin-5-yl]-1-piperidyl]propyl]-2-[[1-(2-chloroacetyl)-3,4-dihydro-2H-quinolin-6-yl]oxy]acetamide] | > 1000 nM | > 1000 nM | < 50% | > 90%
Nc1nnc(-c2ccccc2O)cc1N1CC2CCC(C1)N2c1ncc(C2CCN(CCCCCCCCCNC(=O)COc3ccc4c(c3)CCCN4C(=O)CCl)CC2)cn1 [I-525] | > 1000 nM | > 1000 nM | < 50% | 50 to 70%
Cc1ncsc1-c1ccc(CNC(=O)[C@@H]2C[C@@H](O)CN2C(=O)[C@@H](NC(=O)CCCN2CCC(c3cnc(N4C5CCC4CN(c4cc(-c6ccccc6O)nnc4N)C5)nc3)CC2)C(C)(C)C)cc1 [I-382] | > 1000 nM | > 1000 nM | < 50% | < 50%
Cc1ncsc1-c1ccc(CNC(=O)[C@@H]2C[C@@H](O)CN2C(=O)[C@@H](NC(=O)CCCCN2CCC(CN3CCC(Cn4cc(-c5cc(-c6ccccc6O)nnc5N)cn4)CC3)CC2)C(C)(C)C)cc1 [I-351] | > 1000 nM | > 1000 nM | < 50% | < 50%
Cc1ncsc1-c1ccc(CNC(=O)[C@@H]2C[C@@H](O)CN2C(=O)[C@@H](NC(=O)C2CC3(C2)CC(N2CCC(n4cc(-c5cc(-c6ccccc6O)nnc5N)cn4)CC2)C3)C(C)(C)C)cc1 (some centres unmarked) [I-329] | 100 to 500 nM | < 100 nM | > 90% | > 90%
Nc1nnc(-c2ccccc2O)cc1-c1cnn(C2CCN([C@H]3CC[C@@H](CNc4ccc5c(c4)C(=O)N(C4CCC(=O)NC4=O)C5=O)CC3)CC2)c1 (some centres unmarked) [I-281, 5-((((1s,4s)-4-(4-(4-(3-amino-6-(2-hydroxyphenyl)pyridazin-4-yl)-1H-pyrazol-1-yl)piperidin-1-yl)cyclohexyl)methyl)amino)-2-(2,6-dioxopiperidin-3-yl)isoindoline-1,3-dione] | < 100 nM | < 100 nM | > 90% | > 90%
Cc1ncsc1-c1ccc(CNC(=O)[C@@H]2C[C@@H](O)CN2C(=O)[C@@H](NC(=O)CCN2CCC[C@H](Cn3cc(-c4cc(-c5ccccc5O)nnc4N)cn3)C2)C(C)(C)C)cc1 [I-478] | > 1000 nM | > 1000 nM | < 50% | < 50%
Cc1cc(-c2scnc2C)ccc1CNC(=O)[C@@H]1C[C@@H](O)CN1C(=O)[C@@H](NC(=O)CN1CCC(c2cnc(N3C4CCC3CN(c3cc(-c5ccccc5O)nnc3N)C4)nc2)CC1)C(C)(C)C [I-521] | 100 to 500 nM | 100 to 500 nM | > 90% | > 90%
Nc1nnc(-c2ccccc2O)cc1-c1cnn(C2CCN(C3CCC(Nc4ccc5c(c4)C(=O)N(C4CCC(=O)NC4=O)C5=O)CC3)CC2)c1 (centres unmarked) [I-323] | < 100 nM | < 100 nM | > 90% | > 90%
Cc1ncsc1-c1ccc(CNC(=O)[C@@H]2C[C@@H](O)CN2C(=O)[C@@H](NC(=O)[C@H]2C[C@H](N3CCC(n4cc(-c5cc(-c6ccccc6O)nnc5N)cn4)CC3)C2)C(C)(C)C)cc1 [I-359] | > 1000 nM | > 1000 nM | < 50% | < 50%
Cc1ncsc1-c1ccc(CNC(=O)[C@@H]2C[C@@H](O)CN2C(=O)[C@@H](NC(=O)[C@H]2C[C@H](N3CCC(c4cnc(N5C6CCC5CN(c5cc(-c7ccccc7O)nnc5N)C6)nc4)CC3)C2)C(C)(C)C)cc1 [I-356] | 100 to 500 nM | < 100 nM | 70 to 90% | > 90%
Cc1ncsc1-c1ccc(CNC(=O)[C@@H]2C[C@@H](O)CN2C(=O)[C@@H](NC(=O)C[C@H]2CC[C@@H](c3nccc(N4C5CCC4CN(c4cc(-c6ccccc6O)nnc4N)C5)n3)CC2)C(C)(C)C)cc1 [I-365] | 100 to 500 nM | < 100 nM | > 90% | > 90%
Cc1ncsc1-c1ccc(CNC(=O)[C@@H]2C[C@@H](O)CN2C(=O)[C@@H](NC(=O)Cc2ccc(N3CCC(n4cc(-c5cc(-c6ccccc6O)nnc5N)cn4)CC3)cc2)C(C)(C)C)cc1 [I-516] | > 1000 nM | > 1000 nM | < 50% | < 50%
Cc1ncsc1-c1ccc(CNC(=O)[C@@H]2C[C@@H](O)CN2C(=O)[C@@H](NC(=O)[C@H]2CC[C@@H](N3CCC(n4cc(-c5cc(-c6ccccc6O)nnc5N)cn4)CC3)CC2)C(C)(C)C)cc1 [I-360] | > 1000 nM | > 1000 nM | < 50% | 50 to 70%
Cc1ncsc1-c1ccc(CNC(=O)[C@@H]2C[C@@H](O)CN2C(=O)[C@@H](NC(=O)[C@H]2CC[C@H](N3CCC(n4cc(-c5cc(-c6ccccc6O)nnc5N)cn4)CC3)CC2)C(C)(C)C)cc1 [I-361] | 501 to 1000 nM | > 1000 nM | 50 to 70% | < 50%
Cc1ncsc1-c1ccc(CNC(=O)[C@@H]2C[C@@H](O)CN2C(=O)[C@@H](NC(=O)C2CCN(C(=O)c3cnc(N4C5CCC4CN(c4cc(-c6ccccc6O)nnc4N)C5)nc3)CC2)C(C)(C)C)cc1 [I-342, 1-[2-[3-[3-amino-6-(2-hydroxyphenyl)pyridazin-4-yl]-3,8-diazabicyclo [3.2.1]octan-8-yl]pyrimidine-5-carbonyl]-N-[(1S)-1-[(2S,4R)-4-hydroxy-2-[[4-(4-methylthiazol-5-yl)phenyl]methylcarbamoyl]pyrrolidine-1-carbonyl]-2,2-dimethyl-propyl]piperidine-4-carboxamide] | > 1000 nM | 100 to 500 nM | < 50% | 70 to 90%
Cc1ncsc1-c1ccc(CNC(=O)[C@@H]2C[C@@H](O)CN2C(=O)[C@@H](NC(=O)[C@H]2CCN(Cc3cnc(N4C5CCC4CN(c4cc(-c6ccccc6O)nnc4N)C5)nc3)C2)C(C)(C)C)cc1 [I-387] | > 1000 nM | 501 to 1000 nM | < 50% | > 90%
Cc1ncsc1-c1ccc(CNC(=O)[C@@H]2C[C@@H](O)CN2C(=O)[C@@H](NC(=O)N[C@H]2CC[C@@H](c3cnc(N4C5CCC4CN(c4cc(-c6ccccc6O)nnc4N)C5)nc3)CC2)C(C)(C)C)cc1 [I-334] | 501 to 1000 nM | < 100 nM | 70 to 90% | > 90%
